Measured values taken from patent publication US8674059B2, “Colon cancer related gene TOM34” (Oncotherapy Science, Inc., priority 2005, dated 2014).
Where no end group is shown, it is not given here.

Key:
Format in all cases: cell-based, human
SNU-C2A = assay: 51Cr-release cytotoxicity of CTL clones against SNU-C2A cells (TOM34 positive, HLA-A24 negative); conditions: expresses TOM34 but not HLA-A24
Procedure: (§1) Target cells were labeled with 100 μCi of Na2^51CrO4 (Perkin Elmer Life Sciences) for 1 hr at 37° C. in a CO2 incubator. Peptide-loaded target cells were prepared by incubating the cells with 20 μg/ml of the peptide for 16 hrs at 37° C. before labeling. Labeled target cells were rinsed and mixed with effector cells in a final volume of 0.2 ml in round-bottom microtiter plates. The plates were centrifuged (4 minutes at 800×g) to increase cell-to-cell contact and placed in a CO2 incubator at 37° C. After 4 hrs of incubation, 0.1 ml of the supernatant was collected from each well and the radioactivity was determined with a gamma counter. In case of evaluating cytotoxicity for target cells that endogenously express TOM34, the cytolytic activity was tested in the presence of 30-fold excess of unlabeled K562 cells to eliminate any non-specific lysis due to NK-like effectors. […]
(§2) The percentage of specific cytotoxicity was determined by calculating the percentage of specific ^51Cr-release by the following formula: {(cpm of the test sample release−cpm of the spontaneous release)/(cpm of the maximum release−cpm of the spontaneous release)}×100. Spontaneous release was determined by incubating the target cells alone, in the absence of effector cells, and the maximum release was obtained by incubating the targets with 1N HCl. […]

DLD-1 = assay: 51Cr-release cytotoxicity of CTL clones against DLD-1 cells endogenously expressing TOM34; conditions: DLD-1, expresses TOM34 and HLA-A24
Procedure: as §1, §2

HT29 = assay: 51Cr-release cytotoxicity of CTL clones against HT29 cells endogenously expressing TOM34; conditions: HT29, expresses TOM34 and HLA-A24
Procedure: as §1, §2

TISI cells (HLA-A24/24) = assay: In vitro CTL induction and 51Cr-release cytotoxicity assay against peptide-loaded TISI cells
Source text: Monocyte-derived dendritic cells (DCs) were used as antigen-presenting cells (APCs) to induce CTLs against peptides presented on HLA. DCs were generated in vitro as described elsewhere (Nukaya I, et al., Int J Cancer. 1999; 80(1):92-7; Tsai V, et al., J Immunol. 1997; 158(4):1796-802). Briefly, peripheral blood mononuclear cells (PBMCs) were isolated from normal volunteers ((HLA-A24) by Ficoll-Paque (Pharmacia) solution and separated by adherence to a plastic tissue culture flask (Becton Dickinson) so as to enrich them for the monocyte fraction. The monocyte-enriched population was cultured in the presence of 1,000 U/ml of GM-CSF (provided by Kirin Brewery Company) and 1,000 U/ml of IL-4 (Genzyme) in AIM-V (Invitrogen) containing 2% heat-inactivated autologous serum (AS). After 7 days in the culture, the cytokine-generated DCs were loaded with 20 μg/ml of HLA-A24-binding peptides in the presence of 3 μg/ml of β2-microglobulin for 4 hrs at 20° C. in AIM-V. These peptide-loaded DCs were then irradiated (5,500 rad) and mixed at a 1:20 ratio with autologous CD8+ T cells, obtained by positive selection with Dynabeads M-450 CD8 (Dynal) and Detachabead (Dynal). This mixture was subdivided and aliquots were incubated in 48-well plates (Corning); each well contained 1.5×10^4 peptide-loaded DCs and 3×10^5 CD8+ T cells in 0.5 ml of AIM-V/2% AS containing 10 ng/ml of IL-7 (Genzyme). Three days later, these cultures were supplemented with IL-2 (CHIRON) to a final concentration of 20 IU/ml. On day 7 and 14, the T cells were further restimulated with the autologous peptide-loaded DCs. The DCs were prepared each time by the same way as described above. Cytotoxicity was tested against peptide-loaded TISI cells after the 3rd round of peptide stimulation on day 21. […]
Target cells were labeled with 100 μCi of Na2^51CrO4 (Perkin Elmer Life Sciences) for 1 hr at 37° C. in a CO2 incubator. […] After 4 hrs of incubation, 0.1 ml of the supernatant was collected from each well and the radioactivity was determined with a gamma counter. […]

HT29 cells = assay: Cold target inhibition assay; conditions: E/T ratio 20; TISI with or without loaded peptide
Procedure: FIG. 9 depict HLA specificity of the CTL clones raised by TOM34-299. The CTL clone raised by TOM34-299 specifically recognizes TOM34 in the HLA-A24 restricted manner. • The cold target inhibition assay was performed as described in “Materials and Methods”. HT29 cells labeled by Na2^51CrO4 were prepared as hot target, while TISI cells with or without loaded TOM34-299 peptide were used without ^51Cr labeling as cold targets. E/T ratio was fixed at 20.
as §1

KLRQEVKQNL [KLRQEVKQNL]
cytotoxic activity of two CTL clones (SNU-C2A): neither of the two CTL clones showed any relevant cytotoxic activity | cytotoxic activity of two CTL clones (DLD-1): potent cytotoxic activity | cytotoxic activity of two CTL clones (HT29): potent cytotoxic activity | cytotoxic activity of CTL lines against the peptide-loaded target (TISI cells (HLA-A24/24); CTL lines stimulated by the peptide, TISI loaded with peptide): potent cytotoxic activity | cytotoxic activity of CTL lines against targets not loaded with the peptide (TISI cells (HLA-A24/24); TISI without loaded peptide): without showing any significant cytotoxic activity | E/T ratio at which antigen-specific cytotoxicity of CTL lines is detectable (TISI cells (HLA-A24/24); as low as): 1.2 | cytotoxic activity of CTL clone against HT29 in presence of cold target TISI cells (HT29 cells): inhibited by the addition of TISI cells only when loaded with the peptide
